Experiments:
TetA(B)-His10 = target: T1, TetA(B)-His10 (Escherichia coli, UniProt P02980); assay: isothermal titration calorimetry; type: binding
T1 construct: full length (401 residues), C-terminal His10 tag kept, pET21b, expressed in E. coli C43, purified in LMNG
From the text: isothermal titration calorimetry on TetA(B)-His10

[1] = target: TetA(B)-Δ394–401-Thrombin-His12 (Escherichia coli, UniProt P02980, DEL195-199/DEL203-207); assay: biochemical
From the text: isothermal titration calorimetry on TetA(B)-Δ394–401-Thrombin-His12

[2] = target: T2, TetA(B)-Δ394–401-Thrombin-His12 (Escherichia coli, UniProt P02980, DEL394-401); assay: isothermal titration calorimetry; type: binding
T2 construct: C-terminal truncation of residues 394-401, thrombin site and His12 tag (also printed as His10) kept, pET21b, expressed in E. coli C43, purified in LMNG
T2 sequence (P02980 1-393, stated change not applied): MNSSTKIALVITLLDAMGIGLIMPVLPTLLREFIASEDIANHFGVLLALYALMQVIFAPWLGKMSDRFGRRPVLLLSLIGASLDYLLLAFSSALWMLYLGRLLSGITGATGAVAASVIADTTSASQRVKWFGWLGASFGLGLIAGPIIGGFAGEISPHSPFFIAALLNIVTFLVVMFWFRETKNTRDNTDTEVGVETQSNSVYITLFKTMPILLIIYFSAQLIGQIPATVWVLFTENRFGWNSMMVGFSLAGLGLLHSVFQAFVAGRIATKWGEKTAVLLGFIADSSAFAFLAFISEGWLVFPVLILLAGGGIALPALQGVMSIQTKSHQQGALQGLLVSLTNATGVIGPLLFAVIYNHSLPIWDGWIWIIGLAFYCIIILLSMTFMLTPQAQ

T1 sequence (P02980 whole entry): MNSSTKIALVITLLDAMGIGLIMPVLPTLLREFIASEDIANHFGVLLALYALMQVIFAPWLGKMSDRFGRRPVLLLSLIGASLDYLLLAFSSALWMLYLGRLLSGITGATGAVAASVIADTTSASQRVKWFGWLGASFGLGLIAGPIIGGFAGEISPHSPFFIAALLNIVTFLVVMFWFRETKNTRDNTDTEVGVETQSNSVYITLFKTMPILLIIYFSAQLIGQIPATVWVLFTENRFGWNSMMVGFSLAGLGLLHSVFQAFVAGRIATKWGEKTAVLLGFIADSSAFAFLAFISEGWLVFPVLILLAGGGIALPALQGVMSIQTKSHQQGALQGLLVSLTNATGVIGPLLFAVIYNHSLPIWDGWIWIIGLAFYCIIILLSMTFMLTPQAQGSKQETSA
Sequence of TetA(B)-Δ394–401-Thrombin-His12 (Escherichia coli, UniProt P02980, DEL195-199/DEL203-207) (P02980 1-393, stated change not applied): as the sequence (P02980 1-393, stated change not applied) above

`CN(C)[C@@H]1C(=O)C(C(N)=O)=C(O)[C@@]2(O)C(=O)C3=C(O)c4c(O)cccc4[C@@](C)(O)[C@H]3C[C@@H]12` [tetracycline] gave a Kd (TetA(B)-His10) of 7.3 ± 0.5 µM, a Kd [1] of 17.5 ± 0.5 µM and a Kd [2] of 10 ± 2 µM.
